From ChEMBL document CHEMBL4152377, “Design and Activity of Specific Hypoxia-Inducible Factor-2α (HIF-2α) Inhibitors for the Treatment of Clear Cell Renal Cell Carcinoma: Discovery of Clinical Candidate ( S)-3-((2,2-Difluoro-1-hydroxy-7-(methylsulfonyl)-2,3-dihydro-1 H-inden-4-yl)oxy)-5-fluorobenzonitrile (PT2385)” (J Med Chem, 2018)
The source made the active and inactive calls. No cut-off for these calls is given here.

What was measured:
[1] = biological target: T1, Endothelial PAS domain-containing protein 1 (Homo sapiens, UniProt Q99814)
T1 sequence (Q99814 whole entry, the tested form may be a part): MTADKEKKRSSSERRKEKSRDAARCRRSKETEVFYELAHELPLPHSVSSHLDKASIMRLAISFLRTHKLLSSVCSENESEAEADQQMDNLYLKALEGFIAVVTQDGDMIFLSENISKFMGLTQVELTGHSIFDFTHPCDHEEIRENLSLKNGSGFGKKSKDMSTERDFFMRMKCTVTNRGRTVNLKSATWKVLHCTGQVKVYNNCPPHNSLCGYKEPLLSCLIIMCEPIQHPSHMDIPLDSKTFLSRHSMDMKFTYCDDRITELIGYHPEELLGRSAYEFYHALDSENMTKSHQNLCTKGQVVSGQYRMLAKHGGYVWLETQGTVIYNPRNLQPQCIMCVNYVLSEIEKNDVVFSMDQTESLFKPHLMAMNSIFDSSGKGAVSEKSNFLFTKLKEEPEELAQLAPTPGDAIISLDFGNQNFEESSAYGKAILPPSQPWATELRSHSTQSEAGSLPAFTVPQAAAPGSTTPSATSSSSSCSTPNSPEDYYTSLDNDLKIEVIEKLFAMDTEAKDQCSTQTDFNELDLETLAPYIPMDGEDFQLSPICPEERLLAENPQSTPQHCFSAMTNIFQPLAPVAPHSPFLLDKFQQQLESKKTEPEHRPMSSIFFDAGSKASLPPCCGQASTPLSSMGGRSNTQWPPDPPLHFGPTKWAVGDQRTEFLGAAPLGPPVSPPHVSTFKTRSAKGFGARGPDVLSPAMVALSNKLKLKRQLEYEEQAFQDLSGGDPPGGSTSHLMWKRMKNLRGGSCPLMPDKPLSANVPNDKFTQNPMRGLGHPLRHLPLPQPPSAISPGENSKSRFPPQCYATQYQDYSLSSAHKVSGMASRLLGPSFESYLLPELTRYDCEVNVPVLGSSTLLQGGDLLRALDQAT

[2] = biological target: T1, Endothelial PAS domain-containing protein 1; remark: listed apart in the source
[3] = Oral bioavailability in CD1 mouse at 10 mg/kg by UPLC analysis; assay type: ADME, organism-based; conditions: in vivo
[4] = system: Mus musculus; experiment: In vivo inhibition of HIF-2alpha in SCID/Biege mouse xenografted with human 786-O cells assessed as reduction in CCND1 mRNA levels at 10 mg/kg, po bid for 3 days and measured after 12 hrs post last dose by qRT-PCR analysis; assay type: functional, organism-based
[5] = AUCt in CD1 mouse at 10 mg/kg, po by UPLC analysis; assay type: ADME, organism-based; conditions: in vivo
[6] = Plasma concentration in mouse after 12 hrs; assay type: ADME, cell-free
[7] = Volume of distribution at steady state in CD1 mouse at 3 mg/kg, iv by UPLC analysis; assay type: ADME, organism-based; conditions: in vivo, read-out: Vdss
[8] = Intrinsic clearance in mouse liver microsomes at 1 uM measured up to 30 mins by LC-MS/MS analysis; assay type: ADME, microsome; conditions: read-out: CLH
[9] = system: Mus musculus; experiment: Toxicity in SCID/Biege mouse xenografted with human 786-O cells assessed as effect on body weight at 10 mg/kg, po bid for 21 days; assay type: organism-based; conditions: in vivo, 504 h
[10] = Protein binding in mouse plasma at 10 uM after 4 hrs by LC-MS/MS analysis; assay type: ADME, cell-free; conditions: read-out: PPB (converted)
[11] = system: Mus musculus; experiment: Toxicity in SCID/Biege mouse xenografted with human 786-O cells assessed as mortality at 10 mg/kg, po bid for 21 days; assay type: organism-based; conditions: in vivo, 504 h
[12] = Half life in CD1 mouse at 10 mg/kg, po by UPLC analysis; assay type: ADME, organism-based; conditions: in vivo
[13] = Apparent permeability across apical to basolateral side in MDCK-MDR1 cells at 1 uM after 1 hr by LC/MS/MS analysis; assay type: ADME, cell-based, Canis lupus familiaris; conditions: dog
[14] = system: 786-0; experiment: In vivo inhibition of HIF-2alpha in SCID/Biege mouse xenografted with human 786-O cells assessed as reduction in tumor derived VEGFA protein levels at 10 mg/kg, po bid for 3 days and measured after 12 hrs post last dose by ELISA; assay type: functional, organism-based
[15] = system: Mus musculus; experiment: Minimum drug level in SCID/Biege mouse xenografted with human 786-O cells at 10 mg/kg, po bid for 3 days and measured after 12 hrs post last dose by LC-MS/MS analysis; assay type: ADME, organism-based; conditions: in vivo
[16] = Clearance in CD1 mouse at 3 mg/kg, iv by UPLC analysis; assay type: ADME, organism-based; conditions: in vivo
[17] = system: Mus musculus; experiment: Toxicity in SCID/Biege mouse xenografted with human 786-O cells assessed as morbidity at 10 mg/kg, po bid for 21 days; assay type: organism-based; conditions: in vivo, 504 h
[18] = system: 786-0; experiment: Antitumor activity against human 786-O cells xenografted in SCID/Biege mouse assessed as tumor regression at 10 mg/kg, po bid for 21 days; assay type: functional, organism-based
[19] = system: Mus musculus; experiment: In vivo inhibition of HIF-2alpha in SCID/Biege mouse xenografted with human 786-O cells assessed as reduction in VEGFA mRNA levels at 10 mg/kg, po bid for 3 days and measured after 12 hrs post last dose by qRT-PCR analysis; assay type: functional, organism-based
[20] = system: Rattus norvegicus; experiment: Drug level in Sprague-Dawley rat treated with 10 mg/kg, po (R)-3-((4-(Difluoromethyl)-2,2-difluoro-3-hydroxy-1,1-dioxido-2,3-dihydrobenzo[b]thiophen-5-yl)oxy)-5-fluorobenzonitrile assessed as compound formation by UPLC analysis; assay type: ADME, organism-based; conditions: in vivo

EC50 [1] [nM]	IC50 [2] [nM]	SMILES	other results
2200	180	O=S(=O)(c1ccc(Oc2cc(F)cc(Cl)c2)c(Br)c1)C(F)F	–
43	< 5	O=S1(=O)c2ccc(Oc3cc(F)cc(Cl)c3)c(Br)c2C(O)C1(F)F (configuration not stated)	–
–	4200	CNS(=O)(=O)c1ccc(Nc2cc(F)cc(Cl)c2)c([N+](=O)[O-])c1	–
9200	49	N#Cc1c(Oc2cc(F)cc(Cl)c2)ccc2c1C(O)C(F)(F)S2(=O)=O (configuration not stated)	–
3400	140	O=S(=O)(c1ccc(Oc2cc(F)cc(Cl)c2)c(Cl)c1)C(F)(F)F	–
–	–	O=S(=O)(c1ccc(Oc2cncc(Cl)c2)c2c1[C@H](O)C(F)(F)C2)C(F)F	bioavailability [3]: 101%; inhibition [4]: inactive; AUC(0-t) [5]: 5.44 µM·h; concentration at 12 h [6]: 560 nM; Vd [7]: 25 L/kg; CLint scaled at 1 µM [8]: 20.1 mL/min/kg; Activity [9]: Non-Toxic; fraction unbound at 4 h, 10 µM [10]: 0.06; Activity [11]: Non-Toxic; half-life [12]: 5.3 h; Papp A→B at 1 h, 1 µM [13]: 2.79 ×10⁻⁶ cm/s; inhibition [14]: inactive; Drug uptake [15]: Not Active; clearance [16]: 58.2 mL/min/kg; Activity [17]: Non-Toxic; Activity [18]: inactive; inhibition [19]: inactive
–	22600	NC(=O)c1cc(S(=O)(=O)C(F)(F)F)ccc1Oc1cc(F)cc(Cl)c1	–
7200	2400	O=S1(=O)CC(O)c2c1ccc(Oc1cc(F)cc(Cl)c1)c2Br (configuration not stated)	–
–	700	NCc1c(S(=O)(=O)C(F)F)ccc(Oc2cc(F)cc(Cl)c2)c1Br	–
–	16	O=[N+]([O-])c1cc(S(=O)(=O)C(F)F)ccc1Nc1cc(F)cc(Cl)c1	–
–	280	O=[N+]([O-])c1cc(C(F)(F)F)ccc1Nc1cc(F)cc(Cl)c1	–
–	–	N#Cc1cc(F)cc(Oc2ccc3c(c2C(F)F)C(=O)C(F)(F)S3(=O)=O)c1	Drug uptake [20]: Active
100	–	O=S1(=O)c2ccc(Oc3cc(F)cc(Cl)c3)c(C(F)(F)F)c2C(O)C1(F)F (configuration not stated)	–
–	490	O=[N+]([O-])c1c(Nc2cc(F)cc(Cl)c2)ccc2nonc12	–
–	1100	O=S1(=O)c2ccc(Oc3cc(F)cc(Cl)c3)cc2C(O)C1(F)F (configuration not stated)	–
11600	34	N#Cc1cc(S(=O)(=O)C(F)(F)F)ccc1Oc1cc(F)cc(Cl)c1	–
–	52900	COC(=O)c1cc(S(=O)(=O)C(F)(F)F)ccc1Oc1cc(F)cc(Cl)c1	–
17	–	O=S1(=O)c2ccc(Oc3cc(F)cc(Cl)c3)c(C(F)F)c2C(O)C1(F)F (configuration not stated)	–
340	20	Cc1c(Oc2cc(F)cc(Cl)c2)ccc2c1C(O)C(F)(F)S2(=O)=O (configuration not stated)	–
